ChEMBL document CHEMBL4304800, “C4-Phenylthio β-lactams: Effect of the chirality of the β-lactam ring on antimicrobial activity” (2019)
Converted amounts (≈) assume the structure as drawn.

Columns and labels:
Assay type in all cases: functional
[1] = tested on: Moraxella catarrhalis; test: Bactericidal activity against serine beta-lactamase producing Moraxella catarrhalis incubated in MH broth for 24 to 48 hrs by microbroth dilution method
[2] = tested on: Mycobacterium tuberculosis; test: Antitubercular activity against serine beta-lactamase producing Mycobacterium tuberculosis H37Rv after 14 days in presence of GAST/Fe medium by eleven fold serial dilution method; conditions: 336 h
[3] = tested on: Mycobacterium tuberculosis; test: Antitubercular activity against serine beta-lactamase producing Mycobacterium tuberculosis H37Rv after 14 days in presence of middlebrook 7H9/BSA medium by eleven fold serial dilution method; conditions: 336 h

With `C[C@H](NC(=O)N1C(=O)C[C@H]1[Se]c1ccccc1)c1ccccc1` the MBC [1] was 50 µg/mL (≈ 134 µM), the MIC [1] was 25 µg/mL (≈ 67 µM) and the MIC99 [2] was 6.2 µg/mL. It also gave an MIC99 [3] of 25 µg/mL.
Work on `COc1ccc(S[C@@H]2CC(=O)N2C(=O)N[C@@H](C)c2ccccc2)cc1` yielded an MBC [1] of 50 µg/mL (≈ 140 µM), an MIC [1] of 50 µg/mL (≈ 140 µM) and an MIC99 [2] of 25 µg/mL. It also gave an MIC99 [3] of 50 µg/mL.
`C[C@H](NC(=O)N1C(=O)C[C@@H]1[Se]c1ccccc1)c1ccccc1` showed an MBC [1] of 50 µg/mL (≈ 134 µM), an MIC [1] of 25 µg/mL (≈ 67 µM) and an MIC99 [2] of 6.2 µg/mL. The MIC99 [3] was 25 µg/mL.
`C[C@H](NC(=O)N1C(=O)C[C@H]1Sc1ccc(C(F)(F)F)cc1)c1ccccc1` showed an MBC [1] of 200 µg/mL (≈ 507 µM), an MIC [1] of 200 µg/mL (≈ 507 µM) and an MIC99 [3] of 100 µg/mL.
In the case of `O=C1CC(Sc2ccccc2F)N1` (racemic), the MIC99 [3] was 100 µg/mL.
`C[C@@H](NC(=O)N1C(=O)C[C@H]1Sc1ccc(F)cc1)c1ccccc1` gave an MBC [1] of 25 µg/mL (≈ 72.6 µM), an MIC [1] of 25 µg/mL (≈ 72.6 µM) and an MIC99 [2] of 25 µg/mL. It also gave an MIC99 [3] of 50 µg/mL.
`O=C1CC(Sc2ccc(F)cc2F)N1` (racemic) gave an MBC [1] of 3.1 µg/mL (≈ 14.4 µM) and an MIC99 [3] of 3.1 µg/mL.
With `C[C@@H](NC(=O)N1C(=O)C[C@@H]1Sc1ccc(F)c(F)c1)c1ccccc1` the MBC [1] was 25 µg/mL (≈ 69 µM), the MIC [1] was 25 µg/mL (≈ 69 µM) and the MIC99 [2] was 0.7 µg/mL. It also gave an MIC99 [3] of over 100 µg/mL.
Compound `C[C@@H](NC(=O)N1C(=O)C[C@H]1Sc1ccccc1F)c1ccccc1` has an MBC [1] of 25 µg/mL (≈ 72.6 µM), an MIC [1] of 12.5 µg/mL (≈ 36.3 µM) and an MIC99 [2] of 12.5 µg/mL. It also gave an MIC99 [3] of 25 µg/mL.
With `C[C@H](NC(=O)N1C(=O)C[C@@H]1Sc1c(F)c(F)c(F)c(F)c1F)c1ccccc1` the MBC [1] was 6.2 µg/mL (≈ 14.9 µM), the MIC [1] was 6.2 µg/mL (≈ 14.9 µM) and the MIC99 [2] was 0.7 µg/mL. The MIC99 [3] was 100 µg/mL.
In the case of `COc1ccccc1SC1CC(=O)N1` (racemic), the MIC99 [3] was over 250 µg/mL.
`C[C@H](NC(=O)N1C(=O)C[C@H]1Sc1ccccc1F)c1ccccc1` was tested, and the MBC [1] was 50 µg/mL (≈ 145 µM), the MIC [1] was 50 µg/mL (≈ 145 µM) and the MIC99 [2] was 12.5 µg/mL. The MIC99 [3] was 50 µg/mL.
`C[C@@H](NC(=O)N1C(=O)C[C@@H]1Sc1ccc(F)cc1)c1ccccc1` gave an MBC [1] of 25 µg/mL (≈ 72.6 µM), an MIC [1] of 25 µg/mL (≈ 72.6 µM) and an MIC99 [2] of 12.5 µg/mL. It also gave an MIC99 [3] of 50 µg/mL.
In the case of `C[C@@H](NC(=O)N1C(=O)C[C@@H]1Sc1ccc(F)c(Cl)c1)c1ccccc1`, the MBC [1] was 25 µg/mL (≈ 66 µM), the MIC [1] was 25 µg/mL (≈ 66 µM) and the MIC99 [2] was 1.5 µg/mL. For the same compound, the MIC99 [3] was 25 µg/mL.
`O=C1CC(Sc2ccc(F)cc2)N1C(=O)NCc1ccccc1` (racemic) was tested, and the MIC99 [3] was 6.2 µg/mL.
`C[C@H](NC(=O)N1C(=O)C[C@@H]1Sc1ccccc1F)c1ccccc1` gave an MBC [1] of 200 µg/mL (≈ 581 µM), an MIC [1] of 25 µg/mL (≈ 72.6 µM) and an MIC99 [2] of 6.2 µg/mL. The MIC99 [3] was 25 µg/mL.
`C[C@@H](NC(=O)N1C(=O)C[C@H]1[Se]c1ccccc1)c1ccccc1` was tested, and the MBC [1] was 50 µg/mL (≈ 134 µM), the MIC [1] was 25 µg/mL (≈ 67 µM) and the MIC99 [2] was 12.5 µg/mL. It also gave an MIC99 [3] of 25 µg/mL.
Compound `O=C1CC(Sc2ccccc2F)N1C(=O)NCc1ccccc1` (racemic) has an MIC99 [3] of 25 µg/mL.
Work on `C[C@H](NC(=O)N1C(=O)C[C@H]1Sc1ccc(F)cc1Cl)c1ccccc1` yielded an MBC [1] of 200 µg/mL (≈ 528 µM), an MIC [1] of 200 µg/mL (≈ 528 µM) and an MIC99 [2] of 1.5 µg/mL. It also gave an MIC99 [3] of 37.5 µg/mL.
`O=C1CC([Se]c2ccccc2)N1` (racemic) showed an MBC [1] of 6.2 µg/mL (≈ 27.4 µM), an MIC [1] of 6.2 µg/mL (≈ 27.4 µM) and an MIC99 [3] of 25 µg/mL.
`O=C1CC(Sc2ccc(F)c(F)c2)N1C(=O)NCc1ccccc1` (racemic) gave an MIC99 [3] of 6.2 µg/mL.
`COc1ccccc1SC1CC(=O)N1C(=O)NCc1ccccc1` (racemic) was tested, and the MIC99 [3] was 188 µg/mL.
`O=C1CC([Se]c2ccccc2)N1C(=O)NCc1ccccc1` (racemic) was tested, and the MBC [1] was 12.5 µg/mL (≈ 34.8 µM), the MIC [1] was 12.5 µg/mL (≈ 34.8 µM) and the MIC99 [3] was 25 µg/mL.
In the case of `O=C1CC(Sc2ccc(C(F)(F)F)cc2)N1` (racemic), the MIC99 [3] was 25 µg/mL.
With `C[C@@H](NC(=O)N1C(=O)C[C@H]1Sc1ccc(F)cc1Cl)c1ccccc1` the MBC [1] was 25 µg/mL (≈ 66 µM), the MIC [1] was 25 µg/mL (≈ 66 µM) and the MIC99 [2] was 1.5 µg/mL. For the same compound, the MIC99 [3] was 50 µg/mL.
For `C[C@@H](NC(=O)N1C(=O)C[C@@H]1Sc1ccc(C(F)(F)F)cc1)c1ccccc1`, the MBC [1] was 200 µg/mL (≈ 507 µM), the MIC [1] was 200 µg/mL (≈ 507 µM) and the MIC99 [3] was 100 µg/mL.
For `C[C@H](NC(=O)N1C(=O)C[C@@H]1Sc1ccc(F)cc1F)c1ccccc1`, the MBC [1] was 12.5 µg/mL (≈ 34.5 µM), the MIC [1] was 12.5 µg/mL (≈ 34.5 µM) and the MIC99 [2] was 0.7 µg/mL. It also gave an MIC99 [3] of 12.5 µg/mL.
For `CC[C@H]1OC(=O)[C@H](C)[C@@H](O[C@H]2C[C@@](C)(OC)[C@@H](O)[C@H](C)O2)[C@H](C)[C@@H](O[C@@H]2O[C@H](C)C[C@H](N(C)C)[C@H]2O)[C@](C)(O)C[C@@H](C)CN(C)[C@H](C)[C@@H](O)[C@]1(C)O` [AZITHROMYCIN], the MBC [1] was 0.063 µg/mL (≈ 0.0841 µM) and the MIC [1] was 0.125 µg/mL (≈ 0.167 µM).
For `O=C1CC(Sc2ccc(F)cc2F)N1C(=O)NCc1ccccc1` (racemic), the MBC [1] was 1.6 µg/mL (≈ 4.59 µM), the MIC [1] was 1.6 µg/mL (≈ 4.59 µM) and the MIC99 [3] was 100 µg/mL.
For `COc1ccc(S[C@H]2CC(=O)N2C(=O)N[C@@H](C)c2ccccc2)cc1`, the MBC [1] was 50 µg/mL (≈ 140 µM), the MIC [1] was 50 µg/mL (≈ 140 µM) and the MIC99 [2] was 25 µg/mL. For the same compound, the MIC99 [3] was over 50 µg/mL.
For `C[C@H](NC(=O)N1C(=O)C[C@@H]1Sc1ccc(F)cc1Cl)c1ccccc1`, the MBC [1] was 50 µg/mL (≈ 132 µM), the MIC [1] was 50 µg/mL (≈ 132 µM) and the MIC99 [2] was 1.5 µg/mL. For the same compound, the MIC99 [3] was 25 µg/mL.
In the case of `C[C@@H](NC(=O)N1C(=O)C[C@H]1Sc1ccc(F)c(Cl)c1)c1ccccc1`, the MBC [1] was 25 µg/mL (≈ 66 µM), the MIC [1] was 25 µg/mL (≈ 66 µM) and the MIC99 [2] was 1.5 µg/mL. It also gave an MIC99 [3] of 25 µg/mL.
For `C[C@@H](NC(=O)N1C(=O)C[C@H]1Sc1ccc(C(F)(F)F)cc1)c1ccccc1`, the MBC [1] was 200 µg/mL (≈ 507 µM), the MIC [1] was 200 µg/mL (≈ 507 µM) and the MIC99 [3] was 100 µg/mL.
`O=C1CC(Sc2ccc(F)c(Cl)c2)N1C(=O)NCc1ccccc1` (racemic) gave an MBC [1] of 6.2 µg/mL (≈ 17 µM) and an MIC [1] of 6.2 µg/mL (≈ 17 µM).
Compound `C[C@H](NC(=O)N1C(=O)C[C@@H]1Sc1ccc(F)cc1)c1ccccc1` has an MBC [1] of 50 µg/mL (≈ 145 µM), an MIC [1] of 25 µg/mL (≈ 72.6 µM) and an MIC99 [2] of 12.5 µg/mL. It also gave an MIC99 [3] of 50 µg/mL.
Work on `COc1ccccc1S[C@@H]1CC(=O)N1C(=O)N[C@H](C)c1ccccc1` yielded an MIC [1] of over 200 µg/mL, an MIC99 [2] of 25 µg/mL and an MIC99 [3] of over 100 µg/mL.
`COc1ccc(SC2CC(=O)N2C(=O)NCc2ccccc2)cc1` (racemic) showed an MIC99 [3] of 125 µg/mL.
`C[C@@H](NC(=O)N1C(=O)C[C@@H]1[Se]c1ccccc1)c1ccccc1` was tested, and the MBC [1] was 50 µg/mL (≈ 134 µM), the MIC [1] was 25 µg/mL (≈ 67 µM) and the MIC99 [2] was 12.5 µg/mL. The MIC99 [3] was 25 µg/mL.
In the case of `O=C1CC(Sc2c(F)c(F)c(F)c(F)c2F)N1` (racemic), the MIC99 [3] was over 100 µg/mL.
`C[C@@H](NC(=O)N1C(=O)C[C@@H]1Sc1ccc(F)cc1Cl)c1ccccc1` showed an MBC [1] of 25 µg/mL (≈ 66 µM), an MIC [1] of 25 µg/mL (≈ 66 µM) and an MIC99 [2] of 0.7 µg/mL. It also gave an MIC99 [3] of 25 µg/mL.
`COc1ccc(SC2CC(=O)N2)cc1` (racemic) was tested, and the MBC [1] was 200 µg/mL (≈ 956 µM), the MIC [1] was over 200 µg/mL and the MIC99 [3] was 100 µg/mL.
Compound `O=C1CC(Sc2ccc(F)c(Cl)c2)N1` (racemic) has an MIC99 [2] of 0.7 µg/mL.
With `O=C1CC(Sc2ccc(F)cc2)N1` (racemic) the MIC99 [3] was over 100 µg/mL.
`COc1ccccc1S[C@H]1CC(=O)N1C(=O)N[C@H](C)c1ccccc1` gave an MBC [1] of 50 µg/mL (≈ 140 µM), an MIC [1] of 50 µg/mL (≈ 140 µM) and an MIC99 [2] of 25 µg/mL. For the same compound, the MIC99 [3] was 50 µg/mL.
In the case of `C[C@H](NC(=O)N1C(=O)C[C@@H]1Sc1ccc(F)c(Cl)c1)c1ccccc1`, the MBC [1] was 25 µg/mL (≈ 66 µM), the MIC [1] was 25 µg/mL (≈ 66 µM) and the MIC99 [2] was 1.5 µg/mL. For the same compound, the MIC99 [3] was 25 µg/mL.
For `COc1ccc(S[C@H]2CC(=O)N2C(=O)N[C@H](C)c2ccccc2)cc1`, the MBC [1] was 50 µg/mL (≈ 140 µM), the MIC [1] was 50 µg/mL (≈ 140 µM) and the MIC99 [2] was 25 µg/mL. It also gave an MIC99 [3] of 100 µg/mL.
For `C[C@@H](NC(=O)N1C(=O)C[C@H]1Sc1ccc(F)c(F)c1)c1ccccc1`, the MBC [1] was 12.5 µg/mL (≈ 34.5 µM), the MIC [1] was 12.5 µg/mL (≈ 34.5 µM) and the MIC99 [2] was 0.7 µg/mL. It also gave an MIC99 [3] of at least 100 µg/mL.
For `COc1ccc(S[C@@H]2CC(=O)N2C(=O)N[C@H](C)c2ccccc2)cc1`, the MBC [1] was 50 µg/mL (≈ 140 µM), the MIC [1] was 50 µg/mL (≈ 140 µM) and the MIC99 [2] was 25 µg/mL. For the same compound, the MIC99 [3] was 100 µg/mL.
Compound `O=C1CC(Sc2ccc(F)cc2Cl)N1` (racemic) has an MIC99 [3] of 25 µg/mL.
